PubChem BioAssay (NCI)
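A five-concentration, 48-hour dose response in 96-well plates underlies each endpoint, interpolated linearly between surrounding concentrations. Abbreviation: GI50, concentration required for 50% inhibition of growth. TGI: total growth inhibition.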

Key:
Assay in all cases: growth of human tumour cells (NCI), 48 h
COLO 205 colon = test system: COLO 205 colon
EKVX NSCLC = test system: EKVX NSCLC
LOX IMVI melanoma = test system: LOX IMVI melanoma
MOLT-4 leukemia = test system: MOLT-4 leukemia
OVCAR-5 ovarian = test system: OVCAR-5 ovarian
SK-MEL-2 melanoma = test system: SK-MEL-2 melanoma
SNB-19 CNS = test system: SNB-19 CNS
U251 CNS = test system: U251 CNS
UACC-257 melanoma = test system: UACC-257 melanoma
T-47D breast = test system: T-47D breast

Row | SMILES | GI50 (COLO 205 colon) | TGI (COLO 205 colon) | GI50 (EKVX NSCLC) | TGI (EKVX NSCLC) | GI50 (LOX IMVI melanoma) | TGI (LOX IMVI melanoma) | GI50 (MOLT-4 leukemia) | TGI (MOLT-4 leukemia) | GI50 (OVCAR-5 ovarian) | TGI (OVCAR-5 ovarian) | GI50 (SK-MEL-2 melanoma) | TGI (SK-MEL-2 melanoma) | GI50 (SNB-19 CNS) | TGI (SNB-19 CNS) | GI50 (U251 CNS) | TGI (U251 CNS) | GI50 (UACC-257 melanoma) | TGI (UACC-257 melanoma) | GI50 (T-47D breast) | TGI (T-47D breast)
1 | COC1=CC(c2ccc[nH]2)=N/C1=C\c1[nH]c(C)c(C(=O)CCCCCCCCC(=O)O[C@H]2CC[C@H]3C4CCc5cc(O)ccc5C4CC[C@]23C)c1C (stereo partly drawn) | 0.332 µM | > 50 µM | 0.461 µM | > 50 µM | 0.0764 µM | 0.267 µM | 0.428 µM | > 50 µM | 1.24 µM | > 50 µM | 0.247 µM | 1.95 µM | 3.16 µM | > 50 µM | 0.331 µM | > 50 µM | 3.62 µM | > 50 µM | – | –
2 | CCOc1ccc(NC(=O)/C(CC(=O)c2c[n+](=O)c3ccccc3n2[O-])=N\OCCCc2ccccc2)cc1 | – | > 100 µM | – | > 100 µM | – | – | – | > 100 µM | – | > 100 µM | – | > 100 µM | – | > 100 µM | – | > 100 µM | – | > 100 µM | – | –
3 | COc1ccc2[nH]c(C(=O)N3CCN(C(=O)OCc4ccc5c(Cl)cc(Cl)c(O)c5n4)CC3)cc2c1 | 0.85 µM | 2.48 µM | 1.61 µM | 2.97 µM | 1.43 µM | 2.81 µM | 0.356 µM | 1.79 µM | 1.61 µM | 3.08 µM | 1.61 µM | 3.06 µM | 1.54 µM | 2.87 µM | 1.48 µM | 2.81 µM | 1.41 µM | 2.8 µM | – | –
4 | c1ccc2c(c1)[nH]c1c2nc2ccccn21 | – | > 100 µM | – | > 100 µM | – | – | – | > 100 µM | – | > 100 µM | – | > 100 µM | – | > 100 µM | – | > 100 µM | – | > 100 µM | – | –
5 | O=c1c(Cc2ccc3c(c2)OCO3)nnc2sc(-c3cc(F)c(Cl)cc3Cl)nn12 | 22.6 µM | 59.2 µM | – | – | 44.4 µM | > 100 µM | 36 µM | > 100 µM | 46.6 µM | > 100 µM | – | – | 34.3 µM | > 100 µM | 35.7 µM | > 100 µM | 62.5 µM | > 100 µM | – | –
6 | O=C1c2cccc3cccc(c23)C(=O)N1CCCCCN1CCN(CCN=c2cc3n(-c4ccc(Cl)cc4)c4ccccc4nc-3cc2Nc2ccc(Cl)cc2)CC1 | 2.38 µM | > 50 µM | 14.5 µM | > 50 µM | 9.83 µM | 29.8 µM | – | – | 10.2 µM | 20.1 µM | – | – | 23 µM | > 50 µM | 14.2 µM | 40.3 µM | 13.7 µM | 31.1 µM | 32.8 µM | > 50 µM
7 | O=C1/C(=C/c2ccccc2)Oc2cc(O)ccc21 | – | > 100 µM | – | > 100 µM | – | – | – | > 100 µM | – | – | – | – | – | > 100 µM | – | > 100 µM | – | > 100 µM | – | > 100 µM
8 | O=c1[nH]ccc(CNC23CC4CC(CC(C4)C2)C3)c1O | – | > 100 µM | – | > 100 µM | – | – | – | > 100 µM | – | > 100 µM | – | > 100 µM | – | > 100 µM | – | > 100 µM | – | > 100 µM | – | –
9 | CC(C)(C)C#COC(=O)c1ccccc1 | – | > 100 µM | – | > 100 µM | – | > 100 µM | – | > 100 µM | – | > 100 µM | – | > 100 µM | – | > 100 µM | – | > 100 µM | – | > 100 µM | – | –
10 | Cc1cc(=O)[nH]c(NNC(C#N)c2cccc([N+](=O)[O-])c2)n1 (stereo not drawn) | – | > 100 µM | – | – | – | > 100 µM | – | > 100 µM | – | > 100 µM | – | > 100 µM | – | – | – | > 100 µM | – | > 100 µM | – | –
11 | COC1(OC)C2(Cl)C3=CCCC=C3C1(Cl)C(Cl)=C2Cl | – | 37.7 µM | – | 71.5 µM | – | 30.2 µM | – | 76.9 µM | – | 83.9 µM | – | 36 µM | – | > 100 µM | – | 82.1 µM | – | 75.1 µM | – | –
12 | C/C(=N/NC(=S)Nc1ccccc1)c1nc2ccc(Cl)cc2[nH]1 | – | – | 0.1 µM | 0.959 µM | – | – | 0.086 µM | 1.1 µM | – | – | 0.252 µM | 0.901 µM | 0.25 µM | 1.71 µM | 0.0996 µM | 1.02 µM | 0.236 µM | 0.85 µM | 0.292 µM | 1.56 µM
13 | Cc1cc(Cl)ccc1NC(=O)CCCC(=O)C1C/C(=N/O)CC/C1=N\O (stereo not drawn) | – | > 100 µM | – | > 100 µM | – | – | – | > 100 µM | – | > 100 µM | – | > 100 µM | – | > 100 µM | – | > 100 µM | – | > 100 µM | – | –
14 | CSc1nc(Nc2cccc(NC(=O)CCl)c2)c(C#N)c(-c2cccc([N+](=O)[O-])c2)n1 | 1.82 µM | 3.54 µM | 3.36 µM | 13.2 µM | 0.0373 µM | 0.152 µM | 1.32 µM | 6.37 µM | 2.45 µM | 6.13 µM | 2.05 µM | 5.22 µM | 2.06 µM | 4.78 µM | 1.6 µM | 3.13 µM | 2.18 µM | 5.2 µM | – | –
15 | Cc1cccc(C)c1NC(=O)C(=O)Cc1nc2ccccc2s1 | – | > 100 µM | – | > 100 µM | – | > 100 µM | – | – | – | > 100 µM | – | > 100 µM | – | > 100 µM | – | > 100 µM | – | > 100 µM | – | –
16 | CC(=O)[CH-]C(C)=O.CC(=O)[CH-]C(C)=O.[O-]c1ccccc1.[O-]c1ccccc1.[Ti+4] | > 100 µM | > 100 µM | > 100 µM | > 100 µM | > 100 µM | > 100 µM | > 100 µM | > 100 µM | > 100 µM | > 100 µM | > 100 µM | > 100 µM | > 100 µM | > 100 µM | > 100 µM | > 100 µM | > 100 µM | > 100 µM | – | –
17 | O=c1c(Cc2ccccc2)c(O)cc2n1CCC2 | – | > 100 µM | – | > 100 µM | – | > 100 µM | – | > 100 µM | – | > 100 µM | – | – | – | > 100 µM | – | > 100 µM | – | > 100 µM | – | –
18 | Cc1nnc2n1N=C(c1ccccc1)C(c1ccccc1)S2 (stereo not drawn) | – | 41.8 µM | – | > 100 µM | – | > 100 µM | – | > 100 µM | – | > 100 µM | – | > 100 µM | – | > 100 µM | – | 72 µM | – | > 100 µM | – | –
19 | CCOc1c(Br)cc(Br)cc1C=C(C#N)C#N | – | > 10 µM | – | > 10 µM | – | 7.36 µM | – | > 10 µM | – | – | – | > 10 µM | – | > 10 µM | – | > 10 µM | – | – | – | > 10 µM
